# Assay results taken from patent publication US20240116985A1, “STAPLED PEPTIDES AND METHODS THEREOF” (priority 2020, published 2024).
# Assays:
# CHI Log D procedure = assay type: physicochemical; settings: pH 7.4
# Solubility in PBS = assay type: physicochemical
# Outline: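 PBS sample ultracentrifuged; supernatant run on HPLC vs. 50 μM peptide in DMSO standard. Solubility = (PBS peak area / DMSO peak area) × 50 uM.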
CHI Log D (CHI Log D procedure),Solubility (Solubility in PBS),Structure (SMILES)
2.415,49 µM,"CC(=O)N1CCC[C@]12CC=CCCCC1(CCCC=CCCCCCC[C@@](C)(C(=O)N[C@@H](Cc3ccccc3)C(=O)N[C@@H](Cc3c[nH]c4ccccc34)C(=O)N[C@@H](CCC(N)=O)C(N)=O)NC(=O)[C@H](C(C)C)NC(=O)[C@H](Cc3ccccc3)NC(=O)[C@H](C)NC(=O)[C@H](C)NC(=O)[C@H](CC(=O)O)NC(=O)[C@H](CC(=O)O)NC1=O)NC(=O)[C@H](C)NC(=O)[C@H](C)NC2=O (stereo partly drawn) [I-349, Ac-PL3-Ala-Ala-B5-Asp-Asp-Ala-Ala-Phe-Val-S8-Phe-Trp-Gln-NH2]"
2.887,48 µM,"CC(=O)N1CCC[C@]12CC=CCCCC1(CCCC=CCCCCCC[C@@](C)(C(=O)N[C@@H](Cc3ccccc3)C(=O)N[C@@H](Cc3c[nH]c4ccccc34)C(=O)N[C@@H](CCC(N)=O)C(N)=O)NC(=O)[C@H](C(C)C)NC(=O)[C@H](Cc3ccccc3)NC(=O)[C@H](C)NC(=O)[C@H](C)NC(=O)[C@H](CC(=O)O)NC(=O)[C@H](C)NC1=O)NC(=O)[C@H](C)NC(=O)[C@H](CC(=O)O)NC2=O (stereo partly drawn) [I-350, Ac-PL3-Asp-Ala-B5-Ala-Asp-Ala-Ala-Phe-Val-S8-Phe-Trp-Gln-NH2]"
2.944,50 µM,"CC(=O)N1CCC[C@]12CC=CCCCC1(CCCC=CCCCCCC[C@@](C)(C(=O)N[C@@H](Cc3ccccc3)C(=O)N[C@@H](Cc3c[nH]c4ccccc34)C(=O)N[C@@H](CCC(N)=O)C(N)=O)NC(=O)[C@H](C(C)C)NC(=O)[C@H](Cc3ccccc3)NC(=O)[C@H](C)NC(=O)[C@H](C)NC(=O)[C@H](CC(=O)O)NC(=O)[C@H](C)NC1=O)NC(=O)[C@H](C)NC(=O)[C@H](CC(=O)O)NC2=O (stereo partly drawn) [I-351, Ac-PL3-Asp-Ala-B5-Ala-Asp-Ala-Ala-Phe-Val-S8-Phe-Trp-Gln-NH2]"
1.606,49 µM,"CC(=O)N1CCC[C@]12CC=CCCCC1(CCCC=CCCCCCC[C@@](C)(C(=O)N[C@@H](C)C(=O)N[C@@H](Cc3c[nH]c4ccccc34)C(=O)N[C@@H](CCC(N)=O)C(N)=O)NC(=O)[C@H](C(C)C)NC(=O)[C@H](Cc3ccccc3)NC(=O)[C@H](C)NC(=O)[C@H](C)NC(=O)[C@H](CC(=O)O)NC(=O)[C@H](CC(=O)O)NC1=O)NC(=O)[C@H](C)NC(=O)[C@H](CC(=O)O)NC2=O (stereo partly drawn) [I-355, Ac-PL3-Asp-Ala-B5-Asp-Asp-Ala-Ala-Phe-Val-S8-Ala-Trp-Gln-NH2]"
1.882,50 µM,"CC(=O)N1CCC[C@]12CC=CCCCC1(CCCC=CCCCCCC[C@@](C)(C(=O)N[C@@H](Cc3ccccc3)C(=O)N[C@@H](C)C(=O)N[C@@H](CCC(N)=O)C(N)=O)NC(=O)[C@H](C(C)C)NC(=O)[C@H](Cc3ccccc3)NC(=O)[C@H](C)NC(=O)[C@H](C)NC(=O)[C@H](CC(=O)O)NC(=O)[C@H](CC(=O)O)NC1=O)NC(=O)[C@H](C)NC(=O)[C@H](CC(=O)O)NC2=O (stereo partly drawn) [I-358, Ac-PL3-Asp-Ala-B5-Asp-Asp-Ala-Ala-Phe-Val-S8-Phe-Ala-Gln-NH2]"

# Further lines, the compound ahead of its results:
Structure (SMILES),CHI Log D (CHI Log D procedure),Solubility (Solubility in PBS)
"CC(=O)N1CCC[C@]12CC=CCCCC1(CCCC=CCCCCCC[C@@](C)(C(=O)N[C@@H](Cc3ccccc3)C(=O)N[C@@H](Cc3c[nH]c4ccccc34)C(=O)N[C@@H](CCC(N)=O)C(N)=O)NC(=O)[C@H](C(C)C)NC(=O)[C@H](Cc3cn(C)cn3)NC(=O)[C@H](C)NC(=O)[C@H](C)NC(=O)[C@H](CC(=O)O)NC(=O)[C@H](CC(=O)O)NC1=O)NC(=O)[C@H](C)NC(=O)[C@H](CC(=O)O)NC2=O (stereo partly drawn) [I-329, Ac-PL3-Asp-Ala-B5-Asp-Asp-Ala-Ala-1meH-Val-S8-Phe-Trp-Gln-NH2]",2.01,41 µM
"CC(=O)N1CCC[C@]12CC=CCCCC1(CCCC=CCCCCCC[C@@](C)(C(=O)N[C@@H](Cc3ccccc3)C(=O)N[C@@H](Cc3c[nH]c4ccccc34)C(=O)N[C@@H](CCC(N)=O)C(N)=O)NC(=O)[C@H](C(C)C)NC(=O)[C@H](Cc3cn(C)cn3)NC(=O)[C@H](C)NC(=O)[C@H](C)NC(=O)[C@H](CC(=O)O)NC(=O)[C@H](CC(=O)O)NC1=O)NC(=O)[C@H](C)NC(=O)[C@H](CC(=O)O)NC2=O (stereo partly drawn) [I-330, Ac-PL3-Asp-Ala-B5-Asp-Asp-Ala-Ala-1meH-Val-S8-Phe-Trp-Gln-NH2]",2.047,21 µM
"CC(=O)N1CCC[C@]12CC=CCCCC1(CCCC=CCCCCCC[C@@](C)(C(=O)N[C@@H](Cc3ccc(C(N)=O)cc3)C(=O)N[C@@H](Cc3csc4ccccc34)C(=O)N[C@@H](CCC(N)=O)C(N)=O)NC(=O)[C@H](C(C)C)NC(=O)[C@H](Cc3ccccc3)NC(=O)[C@H](C)NC(=O)[C@H](C)NC(=O)[C@H](CC(=O)O)NC(=O)[C@H](CC(=O)O)NC1=O)NC(=O)[C@H](C)NC(=O)[C@H](CC(=O)O)NC2=O (stereo partly drawn) [I-337, Ac-PL3-Asp-Ala-B5-Asp-Asp-Ala-Ala-Phe-Val-S8-4CBMF-BztA-Gln-NH2]",1.579,48 µM
"CC(=O)N1CCC[C@]12CC=CCCCC1(CCCC=CCCCCCC[C@@](C)(C(=O)N[C@@H](Cc3ccc(C(N)=O)cc3)C(=O)N[C@@H](Cc3csc4ccccc34)C(=O)N[C@@H](CCC(N)=O)C(N)=O)NC(=O)[C@H](C(C)C)NC(=O)[C@H](Cc3ccccc3)NC(=O)[C@H](C)NC(=O)[C@H](C)NC(=O)[C@H](CC(=O)O)NC(=O)[C@H](CC(=O)O)NC1=O)NC(=O)[C@H](C)NC(=O)[C@H](CC(=O)O)NC2=O (stereo partly drawn) [I-338, Ac-PL3-Asp-Ala-B5-Asp-Asp-Ala-Ala-Phe-Val-S8-4CBMF-BztA-Gln-NH2]",1.586,47 µM
"CC(=O)N1CCC[C@]12CC=CCCCC1(CCCC=CCCCCCC[C@@](C)(C(=O)N[C@@H](Cc3ccc(C(=O)O)cc3)C(=O)N[C@@H](Cc3csc4ccccc34)C(=O)N[C@@H](CCC(N)=O)C(N)=O)NC(=O)[C@H](C(C)C)NC(=O)[C@H](Cc3ccccc3)NC(=O)[C@H](C)NC(=O)[C@H](C)NC(=O)[C@H](CC(=O)O)NC(=O)[C@H](CC(=O)O)NC1=O)NC(=O)[C@H](C)NC(=O)[C@H](CC(=O)O)NC2=O (stereo partly drawn) [I-339, Ac-PL3-Asp-Ala-B5-Asp-Asp-Ala-Ala-Phe-Val-S8-4COOHF-BztA-Gln-NH2]",1.328,50 µM
"CC(=O)N1CCC[C@]12CC=CCCCC1(CCCC=CCCCCCC[C@@](C)(C(=O)N[C@@H](Cc3ccc(C(=O)O)cc3)C(=O)N[C@@H](Cc3csc4ccccc34)C(=O)N[C@@H](CCC(N)=O)C(N)=O)NC(=O)[C@H](C(C)C)NC(=O)[C@H](Cc3ccccc3)NC(=O)[C@H](C)NC(=O)[C@H](C)NC(=O)[C@H](CC(=O)O)NC(=O)[C@H](CC(=O)O)NC1=O)NC(=O)[C@H](C)NC(=O)[C@H](CC(=O)O)NC2=O (stereo partly drawn) [I-340, Ac-PL3-Asp-Ala-B5-Asp-Asp-Ala-Ala-Phe-Val-S8-4COOHF-BztA-Gln-NH2]",1.341,49 µM
"CC(=O)N1CCC[C@]12CC=CCCCC1(CCCC=CCCCCCC[C@@](C)(C(=O)N[C@@H](Cc3ccccc3)C(=O)N[C@@H](Cc3c[nH]c4ccccc34)C(=O)N[C@@H](CCC(N)=O)C(N)=O)NC(=O)[C@H](C(C)C)NC(=O)[C@H](Cc3ccccc3)NC(=O)[C@H](C)NC(=O)[C@H](C)NC(=O)[C@H](CC(=O)O)NC(=O)[C@H](CC(=O)O)NC1=O)NC(=O)[C@H](C)NC(=O)[C@H](C)NC2=O (stereo partly drawn) [I-348, Ac-PL3-Ala-Ala-B5-Asp-Asp-Ala-Ala-Phe-Val-S8-Phe-Trp-Gln-NH2]",2.397,46 µM
